Key:
KCHSC = test: Greenhouse test, post-emergence (PO) application, foliar effect; assay type: in vivo, Kochia scoparia; settings: (A) 50, (B) 20, mixture 50 + 20 g of AS/ha, 3 weeks after application
From the text: (§1) The 1:1 mixture of the two soil types was used specifically for cultivating small-seeded dicotyledonous weed since the standard field soil on its own tends to silt up, which may have an adverse effect on the emergence of small-seeded weeds. The resistances mentioned in the tables were confirmed beforehand in standard monitoring experiments. Nevertheless, the origins examined may have additional, hitherto unconfirmed resistances to various mechanisms of action.
(§2) The pots were then cultivated in a greenhouse (12-16 h light, temperature day 20-22° C., night 15-18° C.) until the time of application. The pots were treated at various BBCH stages of the seeds/plants on a laboratory track sprayer with spray liquors comprising the compositions according to the invention, mixtures of the prior art or the individual components. Application of the active compounds or active compound combinations and wetting agents formulated as WG, WP, EC or otherwise was carried out at the appropriate growth stages of the plants. The amount of water used for spray application was 100-600 l/ha. After the treatment, the plants were returned to the greenhouses and fertilized and watered as required. The pots were cultivated in a greenhouse (12-16 h light, temperature day 20-22° C., night 15-18° C.).
(§3) 3 weeks after the application, the foliar effect was evaluated on a scale of 0-100%:
(§4) 0%=no noticeable effect compared to untreated plants
(§5) 100%=full effect compared to untreated plants
(§6) The following abbreviations were used: • BBCH the BBCH code provides information about the morphological development stage of a plant. Officially, the abbreviation denotes the Biologische Bundesanstalt, Bundessortenamt and CHemische Industrie [Federal Biological Institute for Agriculture and Forestry, Federal Office for Crop Plant Varieties, Chemical Industry]. The range of BBCH 00-10 denotes the germination stages of the seeds until surface penetration. The range of BBCH 11-25 denotes the leaf development stages until stocking (corresponds to the number of tillers or side-shoots). • PE pre-emergence soil application; BBCH of the seeds/plants 00-10 • PO post-emergence application on the green parts of the plants; BBCH of the plants 11-25 • IU soil loamy silt—standard field soil • l/ha liters per hectare • S sensitive—the weed populations are sensitive to the active compounds tested • TSR target-site resistance. The weed populations comprise biotypes having a site-of-action-specific resistance, i.e. the binding site at the site of action is modified as a result of natural mutations in the gene sequence so that the active compounds are no longer able to bind, or bind in an unsatisfactory manner, and are therefore no longer able to act. • NTR non-target-site herbicide resistance; this is differentiated, inter alia, into EMR (Enhanced Metabolic Resistance) (the weed populations comprise biotypes having metabolic resistance, i.e. the plants are capable of metabolizing the active compounds more quickly via enzyme complexes, i.e. the active compounds are degraded more quickly in the plant), into reduced penetration into the plant, reduced translocation in the plant, accelerated excretion. […]

BRODI [1] = test: as above; assay type: in vivo, Bromus diformis; settings: (A) 50, (B) 20, mixture 50 + 20 g of AS/ha, 3 weeks after application
From the text: as §1, §2, §3, §4, §5, §6

BIDSU = test: as above; assay type: in vivo, Bidens subalternans; settings: BIDSU sensitive, (A) 50, (B) 20, mixture 50 + 20 g of AS/ha, 3 weeks after application
From the text: as §1, §2, §3, §4, §5, §6

AMATA [2] = test: as above; assay type: in vivo, Amaranthus rudis; settings: (A) 50, (B) 20, mixture 50 + 20 g of AS/ha, 3 weeks after application
From the text: as §1, §2, §3, §4, §5, §6

AMAPA = test: as above; assay type: in vivo, Amaranthus palmeri; settings: AMAPA resistant - group B (TSR), C1 (TSR) and G (NTR), (A) 50, (B) 20, mixture 50 + 20 g of AS/ha, 3 weeks after application
From the text: as §1, §2, §3, §4, §5, §6

EPHHL [3] = test: as above; assay type: in vivo, Euphorbia heterophylla; settings: (A) 50, (B) 20, mixture 50 + 20 g of AS/ha, 3 weeks after application
From the text: as §1, §2, §3, §4, §5, §6

ERICA = test: as above; assay type: in vivo, Erigeron canadensis; settings: (A) 50, (B) 20, mixture 50 + 20 g of AS/ha, 3 weeks after application
From the text: as §1, §2, §3, §4, §5, §6

BRODI [4] = test: Greenhouse test, pre-emergence (PE) soil application; assay type: in vivo, Bromus diformis; parameters: key: % effect: 0 = no effect, 100 = full effect vs untreated; settings: group (B) compound alone, 20 g of AS/ha
From the text: as §1, §2, §3, §4, §5, §6

AMATA [5] = test: as above; assay type: in vivo, Amaranthus rudis; parameters: key: % effect: 0 = no effect, 100 = full effect vs untreated; settings: group (B) compound alone, 20 g of AS/ha
From the text: as §1, §2, §3, §4, §5, §6

EPHHL [6] = test: as above; assay type: in vivo, Euphorbia heterophylla; parameters: key: % effect: 0 = no effect, 100 = full effect vs untreated; settings: group (B) compound alone, 20 g of AS/ha
From the text: as §1, §2, §3, §4, §5, §6

APESV = test: as above; assay type: in vivo, Apera spica-venti; parameters: key: % effect: 0 = no effect, 100 = full effect vs untreated; settings: group (B) compound alone, 20 g of AS/ha
From the text: as §1, §2, §3, §4, §5, §6

LOLSS = test: as above; assay type: in vivo, Lolium spp.; parameters: key: % effect: 0 = no effect, 100 = full effect vs untreated plants; settings: group (B) compound alone, 20 g of AS/ha
From the text: as §1, §2, §3, §4, §5, §6

ERIBO = test: as above; assay type: in vivo, Erigeron bonariensis; parameters: key: % effect: 0 = no effect, 100 = full effect vs untreated; settings: group (B) compound alone, 20 g of AS/ha
From the text: as §1, §2, §3, §4, §5, §6

[7] = tested on: TTTTT (all resistant and sensitive biotypes); test: Greenhouse test, PO application, mean over all resistant and sensitive biotypes; assay type: in vivo; settings: (A) 50, (B) 20, mixture 50 + 20 g of AS/ha; for TTTTT resistant mean (effect): mean of resistant biotypes (n = 17 or n = 15); for TTTTT sensitive mean (effect): mean of sensitive biotypes (n = 11)
From the text: as §1, §2, §3, §4, §5, §6

[8] = tested on: TTTTT (all resistant and sensitive biotypes); test: Greenhouse test, PE application, mean over all resistant and sensitive biotypes; assay type: in vivo; settings: (A) 12.5, (B) 20, mixture 12.5 + 20 g of AS/ha; for TTTTT resistant mean (effect): mean of resistant biotypes (n = 16); for TTTTT sensitive mean (effect): mean of sensitive biotypes (n = 11)
From the text: as §1, §2, §3, §4, §5, §6

[9] = KCHSC resistant - group B (TSR)
[10] = BRODI resistant - group A (TSR), B (NTR) and G (NTR)
[11] = AMATA resistant - group B (TSR), C1 (TSR)
[12] = EPHHL resistant - group B (TSR) and G (NTR)
[13] = EPHHL resistant - group B (TSR)
[14] = ERICA resistant - group B (NA) and G (NTR)

| SMILES | foliar effect (KCHSC; [9]) [%] | foliar effect (KCHSC; KCHSC sensitive) [%] | foliar effect (BRODI [1]; [10]) [%] | foliar effect (BRODI [1]; BRODI sensitive) [%] | foliar effect (BIDSU) [%] | foliar effect (AMATA [2]; [11]) [%] | foliar effect (AMATA [2]; AMATA sensitive) [%] | foliar effect (AMAPA) [%] | foliar effect (EPHHL [3]; [12]) [%] | foliar effect (EPHHL [3]; [13]) [%] | foliar effect (EPHHL [3]; EPHHL sensitive) [%] | foliar effect (ERICA; [14]) [%] | foliar effect (ERICA; ERICA sensitive) [%] | effect on BRODI resistant - group A (TSR), B (NTR) and G (NTR) (BRODI [4]) | effect on BRODI sensitive (BRODI [4]) | effect on AMATA sensitive (AMATA [5]) | effect on EPHHL resistant - group B (TSR) (EPHHL [6]) | effect on EPHHL resistant - group B (TSR) and G (NTR) (EPHHL [6]) | effect on EPHHL sensitive (EPHHL [6]) | effect on APESV resistant - group B (TSR, NTR) and K1/3 (NA) (APESV) | further results |
| --- | --- | --- | --- | --- | --- | --- | --- | --- | --- | --- | --- | --- | --- | --- | --- | --- | --- | --- | --- | --- | --- |
| COc1cc(OC)nc(NC(=O)NS(=O)(=O)c2ncccc2C(F)(F)F)n1 [(B1), flazasulfuron] | 0 | 90 | 75 | 100 | 70 | 50 | 60 | 40 | 40 | 30 | 80 | 50 | 90 | 70 | 80 | 70 | 0 | 20 | 40 | 40 | effect on APESV sensitive (APESV): 85; effect on LOLSS resistant - group G (NTR) (LOLSS): 80; effect on LOLSS resistant group A (TSR, NTR), B (NTR) and C2 (NA) (LOLSS): 70; effect on LOLSS resistant group A (TSR, NTR), B (TSR, NTR) and C2 (NA) (LOLSS): 70; effect on LOLSS sensitive (LOLSS): 70; effect on ERIBO resistant - group B (NA) and G (NTR) (ERIBO): 0; effect on ERIBO sensitive (ERIBO): 70; TTTTT resistant mean (effect) [7]: 40%; TTTTT sensitive mean (effect) [7]: 87%; TTTTT resistant mean (effect) [8]: 32%; TTTTT sensitive mean (effect) [8]: 75% |
| CCOC(=O)c1ccccc1S(=O)(=O)NC(=O)Nc1nc(Cl)cc(OC)n1 [(B4), chlorimuron-ethyl] | 0 | 90 | 70 | 100 | 60 | 60 | 30 | 30 | 30 | 30 | 60 | 60 | 80 | 80 | 95 | 60 | 0 | 40 | 60 | 40 | effect on AMATA resistant - group B (TSR), C1 (TSR) (AMATA [5]): 50; effect on APESV sensitive (APESV): 90; effect on LOLSS resistant - group G (NTR) (LOLSS): 60; effect on LOLSS resistant group A (TSR, NTR), B (NTR) and C2 (NA) (LOLSS): 55; effect on LOLSS resistant group A (TSR, NTR), B (TSR, NTR) and C2 (NA) (LOLSS): 10; effect on LOLSS sensitive (LOLSS): 70; effect on ERIBO resistant - group B (NA) and G (NTR) (ERIBO): 0; effect on ERIBO sensitive (ERIBO): 100; TTTTT resistant mean (effect) [7]: 31%; TTTTT sensitive mean (effect) [7]: 72%; TTTTT resistant mean (effect) [8]: 29%; TTTTT sensitive mean (effect) [8]: 82% |
